“Also recorded” adds a separate entry of the source.

The subject of one data set is PC3-M cells. Briefly: Cell invasion assay, compounds 21-48. The class given is cell-based, human. Particulars: 10 μM of compound. On the procedure:
(§1) Assays were conducted using methods as described in Craft et al. (2008, Mol. Pharmocol., 73(1):235-242; herein incorporated by reference in its entirety).
(§2) The anti-metastatic activity of compounds 21-26 was tested using the procedure of Example 2. Specifically, PC3-M cells were treated with 10 μM of compound (for invasion, FIG. 11) or a range of concentrations (for growth inhibition, FIG. 12). For invasion, values are the mean±SD number of invading cells, as a percent of untreated controls, from N=3 separate assays run at different times (each assay was in replicates of N=4). Cell viability was determined by MTT assay as recited in Kyle et al., Mol. Pharmacol, 51(2):193-200 (1997); herein incorporated by reference in its entirety. Values are the mean±SD of N=2 separate assays run at different times (N=3 for each assay), and are the percent of untreated controls.
as §2, with “31-38” for “21-26”, “13)” for “11)”, “14).” for “12).”
as §2, with “41-48” for “21-26”, “15)” for “11)”, “16).” for “12).”

For a further data set, the system named is PC3-M or PC3 cells. Briefly: Cell invasion assay, compounds of Example 7. The format is cell-based, human. The following applies: 10 μM of compound. On the procedure: as §1
The anti-metastatic activity of the compounds of Example 7 was tested using the procedure of Example 2. Specifically, PC3-M or PC3 cells were treated with 10 μM of compound (for invasion, FIG. 9) or a range of concentrations (for growth inhibition, FIG. 10). For invasion, values are the mean±SD number of invading cells, as a percent of untreated controls, from N=3 separate assays run at different times (each assay was in replicates of N=4). Cell viability was determined by MTT assay as recited in Kyle et al., Mol. Pharmacol, 51(2):193-200 (1997); herein incorporated in its entirety. Values are the mean±SD of N=2 separate assays run at different times (N=3 for each assay), and are the percent of untreated controls.

Data set [1] deals with PC3-M human prostate cancer cells. Nature of the data set: 3-day growth inhibition MTT assay. The format is cell-based. The following applies: range of concentrations. On the procedure: PC3-M human prostate cancer cells were treated with different concentrations of the indicated compound, and then MTT reduction as an indicator of cell viability was measured according to the method of Example 9.
The anti-metastatic activity of compounds 21-26 was tested using the procedure of Example 2. Specifically, PC3-M cells were treated with 10 μM of compound (for invasion, FIG. 11) or a range of concentrations (for growth inhibition, FIG. 12). For invasion, values are the mean±SD number of invading cells, as a percent of untreated controls, from N=3 separate assays run at different times (each assay was in replicates of N=4). Cell viability was determined by MTT assay as recited in Kyle et al., Mol. Pharmacol, 51(2):193-200 (1997); herein incorporated by reference in its entirety. […]
The anti-metastatic activity of compounds 31-38 was tested using the procedure of Example 2. […] Cell viability was determined by MTT assay as recited in Kyle et al., Mol. Pharmacol, 51(2):193-200 (1997); herein incorporated by reference in its entirety. […]
The anti-metastatic activity of compounds 41-48 was tested using the procedure of Example 2. […] Cell viability was determined by MTT assay as recited in Kyle et al., Mol. Pharmacol, 51(2):193-200 (1997); herein incorporated by reference in its entirety. […]

Data set [2] concerns PC3, PC3-M, 1532CPTX, 1542CPTX, 1532NPTX, and 1542NPTX. Nature of the data set: Growth inhibition MTT assay in different cell lines. The following applies: range of concentrations. The format is cell-based, human. On the procedure: Growth inhibition assays were performed with different cell lines using the procedure of Example 2. Specifically, cell lines (PC3, PC3-M, 1532CPTX, 1542CPTX, 1532NPTX, and 1542NPTX) were treated with a range of concentrations of compound 46 (FIG. 18, FIG. 29). Cell viability was determined by MTT assay as recited in Kyle et al., Mol. Pharmacol, 51(2):193-200 (1997); herein incorporated by reference in its entirety. Data are the mean±SEM of a single experiment, performed in triplicate.

Data set [3] deals with ER promoter-luciferase reporter vector construct. Briefly: ER promoter-luciferase reporter assay in MCF-7 cells. Particulars: 10 μM. The class given is cell-based, human. On the procedure: (§3) The genes were: TFF1 (trefoil factor 1; also known as pS2), PGR (progesterone receptor), and CPSD (cathepsin D). Gene expression was measured by isolating RNA, and performing real time quantitative reverse transcription/polymerase chain reaction (qRT/PCR), using exon spanning primers (purchased from Applied Biosystems). The expression of GAPDH was also measured, and used to normalize the expression of ER responsive genes. Data below are the mean±SD of a single experiment, performed in duplicate. […] Additionally, the ability of compound 46 to activate an ER promoter-luciferase reporter vector construct after transient transfection of the human ER positive breast cancer cell line, MCF-7, was evaluated (FIG. 31). […] “No associated control cells” were transfected with an identical vector construct that lacked the estrogen response element, i.e., noERE.

Data set [4] in a line: Stability after radiation and autoclaving. The class given is physicochemical. The procedure:
Successful scale-up of synthesis of compound 46 was conducted according to the methods of Examples 7, 11, and the Detailed Description, yielding 10 g of material that is >98% pure (by HPLC).

The nature of data set [5]: Short-term animal toxicity study, oral gavage. The format is in vivo. The following applies: 0.15, 1.5, 15, or 150 mg/kg body weight/day, 5 days. The procedure: Six week old athymic male mice were dosed by oral gavage with 0.15, 1.5, 15, or 150 mg KBU2046/kg body weight/day, or vehicle control, daily for 5 days. There were 3 mice per dose level.
In data set [6] the test system is Estrogen receptor (ER) positive human MCF-7 breast cancer cells. Nature of the data set: Expression of estrogen responsive genes (TFF1, PGR, CPSD) in MCF-7 cells. The format is cell-based. Particulars: 0.1-50 μM, 24 hours, hormone-free conditions. The procedure:
as §3

Data set [7] has as its system PC3-M, PC3, 1542CPTX, 1532CPTX, 1532NPTX, and 1542NPTX cells. Briefly: Cell invasion assay, invasion time extended to 16 hours. The class given is cell-based, human. Particulars: invasion assay time 16 hours. On the procedure:
as §1
Expanded studies were performed on compound 46. Cell invasion assays conducted using the procedure of Example 2 utilized control, genistein-treated, and compound 46-treated PC3-M, PC3, 1542CPTX, 1532CPTX, 1532NPTX, and 1542NPTX cells (FIG. 17, FIG. 28). This allowed assay conditions to be adjusted so as to optimize assessment of differences between these three treatment conditions. In particular, the invasion assay time was extended from 14 to 16 hours.

On to `COc1ccc(-c2cc3c(OC)cc(OC)cc3oc2=O)cc1` [Compound 23], for which the anti-invasion efficacy entry in the data set with PC3-M cells is “loss of activity”. As to `O=c1c(-c2ccc(O)cc2)coc2cc(O)cc(O)c12` [Compound 8], in the data set on PC3-M or PC3 cells, the “inhibition of cell invasion (anti-metastatic activity)” value (“inhibition of cell invasion” below) was “did not show any significant inhibition of cell invasion”. As for `O=c1c(-c2cccc(Cl)c2)coc2ccccc12` [Compound 38, 3′-chloroisoflavone], in [1], the “cell growth inhibition (MTT)” value is “growth inhibitory effects”. In addition, the anti-invasion efficacy entry in the data set with PC3-M cells was “anti-invasive”. For the compound `CC(=O)Oc1ccc(-c2cc3c(OC(C)=O)cc(OC(C)=O)cc3oc2=O)cc1` [Compound 24], the anti-invasion efficacy result with PC3-M cells is on record as “loss of activity”. Turning to `O=c1oc2cc(O)cc(O)c2cc1-c1ccc(O)cc1` [Compound 25], the anti-invasion efficacy entry in the data set on PC3-M cells is listed as “loss of activity”. With `O=C1c2ccccc2OCC1c1ccc(F)cc1` (centres unmarked) [Compound 46, 4′-fluoroisoflavanone], in [2], the “toxicity in growth inhibition assay (MTT cell viability)” value is “less toxic than genistein, and in fact shows no toxicity; also recorded: no cell toxicity”. The luciferase activity result in data set [3] is “no effect”. Besides, the compound stability entry in data set [4] (after exposure to 40 kGy of radiation) is reported as “stability was documented”; in data set [4] (after exposure to high temperatures and pressures (autoclaving)), “stability was documented”. The toxicity entry in [5] is given as “no evidence of toxicity”. Besides, the “estrogenic activity (expression of estrogen responsive genes)” value in [6] is on record as “no estrogenic activity”. The “anti-invasion efficacy compared to genistein” value in data set [7] was “greater efficacy than genistein; also recorded: greater anti-invasion efficacy compared to genistein”. Consider `O=C1c2c(O)cc(O)cc2OCC1c1ccc(O)cc1` (centres unmarked) [Compound 22, 5,7,4′-trihydroxyisoflavanone], for which the “cell growth inhibition (MTT)” value in [1] is on record as “little-to-no effect upon cell growth inhibition”. Also, in the data set on PC3-M cells, the anti-invasion efficacy result is listed as “retain anti-invasion efficacy”. On to `O=c1c(-c2ccccc2)coc2ccccc12` [Compound 1], for which, in the data set with PC3-M or PC3 cells, the “inhibition of cell invasion” value is “did not show any significant inhibition of cell invasion”. On to `O=c1oc2cc(O)cc(O)c2cc1-c1ccc(O)cc1` [Compound 17], for which, in the data set with PC3-M or PC3 cells, the “inhibition of cell invasion” value was “did not show any significant inhibition of cell invasion”.

Values taken from patent US8742141B2, “Inhibition and treatment of prostate cancer metastasis” (Northwestern University, priority 2008, dated 2014).
